Target: prostate-specific membrane antigen (PSMA) (Homo sapiens, UniProt Q04609)
Experiment: purified PSMA, PABGgG hydrolysis by HPLC
Assay type: biochemical

Sequence of prostate-specific membrane antigen (PSMA) (Q04609 whole entry): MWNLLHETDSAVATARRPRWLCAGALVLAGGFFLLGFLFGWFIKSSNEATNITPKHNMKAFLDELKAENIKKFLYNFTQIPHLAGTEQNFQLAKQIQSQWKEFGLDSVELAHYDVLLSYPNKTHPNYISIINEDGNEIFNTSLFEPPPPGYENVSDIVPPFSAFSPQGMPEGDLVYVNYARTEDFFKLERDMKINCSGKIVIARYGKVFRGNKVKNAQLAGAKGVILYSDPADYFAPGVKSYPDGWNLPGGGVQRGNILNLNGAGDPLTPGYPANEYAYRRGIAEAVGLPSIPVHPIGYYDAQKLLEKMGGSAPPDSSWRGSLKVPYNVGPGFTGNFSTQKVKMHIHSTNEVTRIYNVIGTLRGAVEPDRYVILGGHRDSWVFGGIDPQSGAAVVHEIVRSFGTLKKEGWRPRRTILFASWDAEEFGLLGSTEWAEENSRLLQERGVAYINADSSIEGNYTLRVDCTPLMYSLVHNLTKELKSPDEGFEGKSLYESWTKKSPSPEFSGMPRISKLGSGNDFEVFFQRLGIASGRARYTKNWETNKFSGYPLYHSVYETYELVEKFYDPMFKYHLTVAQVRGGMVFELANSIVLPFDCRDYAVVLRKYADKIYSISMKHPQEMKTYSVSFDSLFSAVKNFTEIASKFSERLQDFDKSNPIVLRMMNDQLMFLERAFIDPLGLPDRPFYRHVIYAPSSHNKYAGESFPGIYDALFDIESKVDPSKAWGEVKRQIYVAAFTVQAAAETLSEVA

| IC50 | Substance |
| --- | --- |
| 6.6 nM | DBCO-PEG4-CTT-54.2 [compound 6] |
| 1 nM | DBCO-PEG4-CTT-54 [compound 5] |
